PubChem BioAssay (NCI)
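GI50: concentration for 50% inhibition of growth. TGI: concentration producing complete growth inhibition.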

Assays:
Assay in all cases: NCI-60 cell line screen, 384-well format
K-562 leukemia = system: K-562 leukemia
HCT-15 colon = system: HCT-15 colon
NCI-H522 lung = system: NCI-H522 lung
SNB-19 CNS = system: SNB-19 CNS
UO-31 renal = system: UO-31 renal
LOX IMVI melanoma = system: LOX IMVI melanoma
UACC-257 melanoma = system: UACC-257 melanoma
SF-268 CNS = system: SF-268 CNS
MDA-MB-435 melanoma = system: MDA-MB-435 melanoma
IGROV1 ovarian = system: IGROV1 ovarian
HOP-92 NSCLC = system: HOP-92 NSCLC
SK-MEL-2 melanoma = system: SK-MEL-2 melanoma
UACC-62 melanoma = system: UACC-62 melanoma

Structure (SMILES) | GI50 (K-562 leukemia) [µM] | TGI (K-562 leukemia) [µM] | GI50 (HCT-15 colon) [µM] | TGI (HCT-15 colon) [µM] | GI50 (NCI-H522 lung) [µM] | TGI (NCI-H522 lung) [µM] | GI50 (SNB-19 CNS) [µM] | TGI (SNB-19 CNS) [µM] | GI50 (UO-31 renal) [µM] | GI50 (LOX IMVI melanoma) [µM] | TGI (LOX IMVI melanoma) [µM] | GI50 (UACC-257 melanoma) [µM] | TGI (UACC-257 melanoma) [µM] | GI50 (SF-268 CNS) [µM] | TGI (SF-268 CNS) [µM] | GI50 (MDA-MB-435 melanoma) [µM] | TGI (MDA-MB-435 melanoma) [µM] | GI50 (IGROV1 ovarian) [µM] | TGI (IGROV1 ovarian) [µM] | GI50 (HOP-92 NSCLC) [µM] | also measured
CC[C@H](Nc1ncnc2nc[nH]c12)c1nc2cccc(F)c2c(=O)n1-c1ccccc1 | 24 | 82.9 | 30.1 | > 100 | 26.1 | > 100 | > 74.4 | > 100 | 5.12 | 43.2 | > 100 | > 74.9 | > 100 | 25.6 | > 100 | 25.6 | 57.1 | 4.31 | 14.9 | 12.2 | TGI (HOP-92 NSCLC): 98.5 µM; GI50 (SK-MEL-2 melanoma): 24 µM; TGI (SK-MEL-2 melanoma): 70.8 µM; GI50 (UACC-62 melanoma): 19.4 µM; TGI (UACC-62 melanoma): > 100 µM
CC(C)Nc1cc(-c2c[nH]c(C(=O)N[C@H](CO)c3cccc(Cl)c3)c2)c(Cl)cn1 | 1.45 | 13.4 | 4.5 | 17.9 | 1.8 | 13.2 | 9.24 | 22.5 | 3.23 | 0.184 | 0.883 | 0.144 | 0.498 | 11 | 23 | 0.314 | 13.4 | 0.496 | 7.2 | 0.445 | TGI (UO-31 renal): 16.8 µM; TGI (HOP-92 NSCLC): 2.13 µM; GI50 (SK-MEL-2 melanoma): 0.186 µM; TGI (SK-MEL-2 melanoma): 0.467 µM; GI50 (UACC-62 melanoma): 0.0563 µM; TGI (UACC-62 melanoma): 0.895 µM
